From patent US9428540B2, “Fatty acid esters of glucocorticoids as anti-inflammatory and anti-cancer agents” (priority 2007, dated 2016)
Read-outs that look alike come from different tables or passages of the source.

How the values were obtained:
[1] = tested on: LUC reporter gene under the control of the PPARα 5′-flanking and promoter region; test: LUC reporter gene activity in transiently transfected COS-1 cells (pMT-hGR); format: cell-based, Monkey; parameters: gene activation less than fluticasone propionate / luciferase activity/β-galactosidase (in percent (%) of Fluticasone propionate): concentration or dose not given beside the values; settings: for luciferase activity/β-galactosidase (in percent (%) of Fluticasone propionate): COS-1 cells, harvested after 72 h
Description: Monkey kidney COS-1 cells (ATCC CRL 1650) were grown in Dulbecco's modified Eagle's medium (Gibco BRL, Grand Island, N.Y.) as described elsewhere (9). Transient transfections of COS-1 cells were performed as described elsewhere (10). The cells were plated at a density of 2×10^5 cells/well. Each well received 5 μg test plasmid, 5 μg β-galactosidase control plasmid as an internal control and either 2 μg expression plasmid, pMT-hGR or pGL3-basic as carrier. Plasmid details: The mouse PPARα gene is described elsewhere (11). Vectors expressing the LUC reporter gene under the control of the PPARα5′-flanking and promoter region were constructed in the pGL3-LUC vector (Promega). The PPARα 5′-flanking sequence between −2800 bp and +100 bp was cloned into NheI digested pGL3-LUC to generate the PPAR (−2800/+100) LUC plasmid Each transfection was performed in triplicates. The cells were transfected 24 h after plating together with fresh medium containing ligand. After 72 h cells were harvested, cytosol extracts were prepared and LUC activities were measured according to the Promega protocol. Results were normalized against β-galactosidase activities measured by incubating 100 μl extract with 0.28 mg o-nitrophenyl-D-galactoside (ONPG) in 50 mM phosphate buffer pH 7.0, 10 mM KCl, 1 mM MgCl2 for 30 min at 30° C. and reading absorbance at 420 nm.

[2] = tested on: THP-1 cells; test: CellTiter 96 Non-Radioactive cell proliferation (MTS) assay, 48 h; format: cell-based, human; settings: for IC50: THP1 cells, 48 hours incubation, read-out: THP1 cells, IC50 μM ± SD
Description: (§1) The U937 and THP-1 cell lines were seeded, 20 000 cells per well, in 96-well-plates. 50 μl cell culture medium was added to each well. At the same time test compounds were added in 5 different concentrations and incubated for 48 hours. The CellTiter 96® Non-Radioactive cell proliferation assay (Promega) was used to study the cytotoxicity of test compounds in these cells. This assay is a colorimetric method for determining the number of viable cells in proliferation or chemosensitivity assays. It is composed of solutions of a novel tetrazolium compound (3-(4,5-dimethylthiazol-2-yl)-5-(3-carboxymethoxyphenyl)-2-(4-sulfophenyl)-2H-tetrazolium, inner salt; MTS) and an electron coupling reagent (phenazine methosulfate; PMS). MTS is bioreduced by cells into a formazan product that is soluble in tissue culture medium. The absorbance of the formazan at 490 nm can be measured directly from 96 well assay plates without additional processing. The quantity of formazan product as measured by the amount of 490 nm absorbance is directly proportional to the number of living cells in culture (IC50 values). The test compounds were fluticasone propionate and fluticasone elaidic acid derivative.

[3] = tested on: U937 cells; test: as above; format: cell-based, human; settings: for IC50: read-out: U937 cells, IC50 μM ± SD
Description: as §1

[4] = tested on: GM-CSF release; test: Inhibition of IL-1β-stimulated GM-CSF release in A549 TRE cells; format: cell-based; settings: for IC50: IL-1β-stimulated, 24 hours exposure; for fold more potent inhibition of GM-CSF release compared to fluticasone propionate: versus fluticasone propionate
Description: IL-1β-stimulation causes an increase in granulocyte-macrophage colony-stimulating factor (GM-CSF) release after 24 hours in A549 TRE (AP-1 regulation) cells. Inhibition of the GM-CSF release is measured after 24 hours exposure to a test compound.

[5] = tested on: GRE-luciferase; test: Induction of GRE-luciferase activity in stably transfected A549 GRE-luciferase cells; format: cell-based
[6] = listed as fluticasone elaidic acid ester derivative

Molecule | luciferase activity/β-galactosidase (in percent (%) of Fluticasone propionate) [1] [%] | luciferase activity/β-galactosidase (in percent (%) of Fluticasone propionate) ([1]; listed as flumethasone elaidic acid ester derivative) [%] | IC50 [2] [µM] | IC50 ([3]; 48 hours incubation) [µM] | luciferase activity/β-galactosidase (in percent (%) of Fluticasone propionate) ([1]; listed as Fluticasone elaidic acid ester derivative) [%] | luciferase activity/β-galactosidase (in percent (%) of Fluticasone propionate) [1, 6] [%] | gene activation less than fluticasone propionate ([1]; activation as a measure for side effects) [%] | fold decrease in side effects (activation of GRE elements) ([1]; versus fluticasone propionate) [fold] | IC50 [4] [nM] | fold more potent inhibition of GM-CSF release compared to fluticasone propionate [4] [fold] | fold more potent inhibition of GM-CSF release compared to fluticasone propionate ([4]; listed as flucticasone elaidic acid ester derivative) | fold more potent inhibition of GM-CSF release compared to fluticasone propionate [4, 6] [fold] | effect on GRE-luciferase activity [5] | IC50 ([2]; Homo sapiens, THP-1) [µM] | activity in THP1 cells (resistance) ([2]; up to 100 μM) | IC50 ([3]; Homo sapiens, U-937, 48 hours incubation) [µM] | activity in U937 cells (resistance) ([3]; up to 100 μM) | IC50 ([4]; Homo sapiens) [nM] | EC50 ([5]; Homo sapiens, read-out: EC50 of induction of GRE-luciferase reporter activity) [nM]
6α,9α-Difluoro-16α-elaidoyloxy-11β-hydroxy-16α-methyl-3-oxoandrosta-1,4-diene-17β-carboxylic acid | 2 | 2 |  |  |  |  |  |  |  |  |  |  |  |  |  |  |  |  | 
CCCCCCCCC=CCCCCCCCC(=O)OC1(C(=O)SCF)C(C)CC2C3CC(F)C4=CC(=O)C=CC4(C)C3(F)C(O)CC21C (centres unmarked) [Fluticasone elaidic acid derivative] |  |  | 10 | 1 | 15 | 15 | 85 | 7 | 0.014 | 22 | more than 20 fold | 22 | lack of effect |  |  |  |  |  | 
CCC(=O)O[C@]1(C(=O)SCF)[C@H](C)C[C@H]2[C@@H]3C[C@H](F)C4=CC(=O)C=C[C@]4(C)[C@@]3(F)[C@@H](O)C[C@@]21C [Fluticasone propionate, reference compound] | 100 |  |  |  |  |  |  |  |  |  |  |  |  | > 100 | no activity seen up to 100 μM | > 100 | no activity seen up to 100 μM | 0.31 | 0.51
